Values quoted from earlier work, collected in publication PMC11053489 (Viruses, 2024).

Test system: SARS-CoV-2 with mutations in the RNA-dependent RNA polymerase gene
Details: cited from earlier work

In the case of `CCC(CC)COC(=O)[C@H](C)N[P@](=O)(OC[C@H]1O[C@@](C#N)(c2ccc3c(N)ncnn23)[C@H](O)[C@@H]1O)Oc1ccccc1` [Remdesivir], the “increase in EC50 of resistant lineages” value is given as 2.5 to 10 fold.
